In patent US20080234262A1 (Wyeth, priority 2007, published 2008) one finds IC50 data, which are given here for 26 molecules.

Like-named read-outs stand apart in the source and are kept apart here.

For one experiment, the target named is PI3K (Homo sapiens, UniProt P42336). The experiment can be described thus: Fluorescence polarization assay for PI3K.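 Also: PI3K kinase reaction on PIP2 with ATP, 30-60 min, product sensed by GST-GRP with red probe in fluorescence polarization (mP), controls without enzyme and at zero time.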 The class given is biochemical.
For another experiment, the system named is prostate line LNCap. In words: In vitro cell culture growth assay (MTS), LNCap. The class given is cell-based, human. The following applies: LNCap cells, three days after drug treatment.
In a further experiment the test system is breast line MDA468. The experiment can be described thus: In vitro cell culture growth assay (MTS), MDA468. The class given is cell-based, human. Conditions: MDA468 cells, three days after drug treatment. In short, it runs like this:
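Cells were plated and, one day later, exposed to inhibitors for three days; viable cell density was then measured by metabolic conversion of MTS dye, read as absorbance at 490 nm. Growth is expressed as percent of vehicle-treated control cells on the same plate.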

Chain of PI3K (P42336 whole entry): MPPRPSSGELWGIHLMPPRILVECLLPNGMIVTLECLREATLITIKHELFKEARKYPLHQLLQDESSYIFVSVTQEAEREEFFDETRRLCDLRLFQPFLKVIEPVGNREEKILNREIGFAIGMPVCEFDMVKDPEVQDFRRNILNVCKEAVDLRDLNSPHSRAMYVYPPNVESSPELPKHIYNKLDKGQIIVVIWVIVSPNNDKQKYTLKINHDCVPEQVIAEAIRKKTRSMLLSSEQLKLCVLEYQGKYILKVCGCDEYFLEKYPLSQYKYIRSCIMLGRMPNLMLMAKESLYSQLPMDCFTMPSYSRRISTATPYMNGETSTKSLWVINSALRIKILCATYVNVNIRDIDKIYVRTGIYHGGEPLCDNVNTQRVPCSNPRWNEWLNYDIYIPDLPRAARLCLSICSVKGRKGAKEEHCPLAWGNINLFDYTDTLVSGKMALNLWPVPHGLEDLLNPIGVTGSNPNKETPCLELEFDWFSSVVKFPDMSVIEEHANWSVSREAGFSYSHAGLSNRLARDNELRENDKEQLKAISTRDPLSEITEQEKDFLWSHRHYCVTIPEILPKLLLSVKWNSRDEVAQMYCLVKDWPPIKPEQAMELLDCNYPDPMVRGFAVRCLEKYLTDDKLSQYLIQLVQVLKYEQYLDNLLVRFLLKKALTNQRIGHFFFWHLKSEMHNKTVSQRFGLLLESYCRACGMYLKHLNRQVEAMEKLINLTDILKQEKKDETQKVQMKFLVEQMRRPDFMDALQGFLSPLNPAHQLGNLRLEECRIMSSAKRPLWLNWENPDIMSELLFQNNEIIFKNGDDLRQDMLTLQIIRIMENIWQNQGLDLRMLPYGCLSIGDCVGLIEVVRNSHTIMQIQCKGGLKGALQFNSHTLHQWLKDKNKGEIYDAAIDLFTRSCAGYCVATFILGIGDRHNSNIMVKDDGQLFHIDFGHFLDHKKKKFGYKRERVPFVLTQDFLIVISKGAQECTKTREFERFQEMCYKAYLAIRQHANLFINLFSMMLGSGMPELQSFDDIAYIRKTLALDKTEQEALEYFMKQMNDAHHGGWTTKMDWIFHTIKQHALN
Chain of PI3K (P27986 whole entry partner): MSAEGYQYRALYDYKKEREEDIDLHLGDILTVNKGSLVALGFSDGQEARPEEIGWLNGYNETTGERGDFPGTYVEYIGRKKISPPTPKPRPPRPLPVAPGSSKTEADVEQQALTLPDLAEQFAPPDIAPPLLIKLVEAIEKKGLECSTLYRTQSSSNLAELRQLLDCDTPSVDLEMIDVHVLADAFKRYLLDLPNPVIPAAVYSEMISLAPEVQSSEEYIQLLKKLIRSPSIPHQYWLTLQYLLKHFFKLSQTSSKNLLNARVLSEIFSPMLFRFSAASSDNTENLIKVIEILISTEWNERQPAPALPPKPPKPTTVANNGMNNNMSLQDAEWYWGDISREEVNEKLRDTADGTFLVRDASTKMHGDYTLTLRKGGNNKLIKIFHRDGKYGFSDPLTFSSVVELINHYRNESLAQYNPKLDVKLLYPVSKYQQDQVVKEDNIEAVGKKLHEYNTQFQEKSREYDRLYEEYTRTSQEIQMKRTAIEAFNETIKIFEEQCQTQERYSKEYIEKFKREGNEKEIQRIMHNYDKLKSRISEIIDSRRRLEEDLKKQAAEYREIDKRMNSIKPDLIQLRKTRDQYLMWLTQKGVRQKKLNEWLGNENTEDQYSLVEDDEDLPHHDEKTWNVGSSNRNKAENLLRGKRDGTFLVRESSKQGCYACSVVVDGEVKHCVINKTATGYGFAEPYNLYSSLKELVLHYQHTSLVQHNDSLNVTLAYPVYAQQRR

`CNC(=O)Nc1ccc(-c2nc(N3CCOCC3)c3cnn(C4CCN(C(=O)Nc5cccnc5)CC4)c3n2)cc1` [Example 335, 4-(6-{4-[(methylcarbamoyl)amino]phenyl}-4-morpholin-4-yl-1H-pyrazolo[3,4-d]pyrimidin-1-yl)-N-pyridin-3-ylpiperidine-1-carboxamide]: the IC50 on PI3K (PI3Kα, read-out: PI3Kα IC50) was determined as 30 nM; in the experiment with prostate line LNCap (Homo sapiens, LNCaP, 72 h), 3000 nM; in the experiment with breast line MDA468 (Homo sapiens, 72 h), 2500 nM.
For `C=CC(=O)N1CCC(n2ncc3c(N4CCOCC4)nc(-c4ccc(NC(=O)NC)cc4)nc32)CC1` [Compound 758, 1-{4-[1-(1-acryloylpiperidin-4-yl)-4-morpholin-4-yl-1H-pyrazolo[3,4-d]pyrimidin-6-yl]phenyl}-3-methylurea] the same measures were 98 nM, 370 nM and 300 nM.
For `CNC(=O)Nc1ccc(-c2nc(N3CCOCC3)c3cnn(C4CCSCC4)c3n2)cc1` [Compound 867, 1-methyl-3-{4-[4-morpholin-4-yl-1-(tetrahydro-2H-thiopyran-4-yl)-1H-pyrazolo[3,4-d]pyrimidin-6-yl]phenyl}urea] the same measures were 47 nM, below 18.5 nM and below 68.5 nM.
Take `O=C(Nc1ccc(-c2nc(N3CCOCC3)c3cnn(C4CCN(Cc5ccccc5)CC4)c3n2)cc1)NN1CCCC1` [Compound 537, 1-{4-[1-(1-benzylpiperidin-4-yl)-4-morpholin-4-yl-1H-pyrazolo[3,4-d]pyrimidin-6-yl]phenyl}-3-pyrrolidin-1-ylurea]: the IC50 on PI3K (PI3Kα, read-out: PI3Kα IC50) was determined as 4230 nM; with prostate line LNCap (Homo sapiens, LNCaP, 72 h), 3000 nM; in the experiment with breast line MDA468 (Homo sapiens, 72 h), 10000 nM.
As for `CCOC(=O)N1CCC(n2ncc3c(N4CCOCC4)nc(-c4ccc(NC(=O)Nc5ccncc5)cc4)nc32)CC1` [Compound 817, ethyl 4-(4-morpholin-4-yl-6-{4-[(pyridin-4-ylcarbamoyl)amino]phenyl}-1H-pyrazolo[3,4-d]pyrimidin-1-yl)piperidine-1-carboxylate], the IC50 on PI3K (PI3Kα, read-out: PI3Kα IC50) was 40 nM; with prostate line LNCap (Homo sapiens, LNCaP, 72 h), below 27 nM; in the experiment on breast line MDA468 (Homo sapiens, 72 h) it was below 27 nM.
With `CC(=O)Nc1ccc(-c2nc(N3CCOCC3)c3cn[nH]c3n2)cc1` [Compound 233, N-[4-(4-morpholin-4-yl-1H-pyrazolo[3,4-d]pyrimidin-6-yl)phenyl]acetamide], the IC50 on PI3K (PI3Kα, read-out: PI3Kα IC50) came to 443 nM; with prostate line LNCap (Homo sapiens, LNCaP, 72 h), 3700 nM; in the experiment on breast line MDA468 (Homo sapiens, 72 h), 8500 nM.
For `c1ccc(CN2CCC(n3ncc4c(N5CCOCC5)nc(-c5cn[nH]c5)nc43)CC2)cc1` [Compound 189] the same measures were 765 nM, 3200 nM and 8300 nM.
Regarding `CCn1ncc2c(N3CCOCC3)nc(-c3cccc(O)c3)nc21` [Compound 97], the IC50 is 18 nM on PI3K (PI3Kα, read-out: PI3Kα IC50); 310 nM in the experiment on prostate line LNCap (Homo sapiens, LNCaP, 72 h); 1300 nM in the experiment on breast line MDA468 (Homo sapiens, 72 h).
In the case of `CNC(=O)Nc1ccc(-c2nc(N3CCOCC3)c3cnn(CC(F)(F)F)c3n2)cc1` [Compound 729, 1-methyl-3-{4-[4-morpholin-4-yl-1-(2,2,2-trifluoroethyl)-1H-pyrazolo[3,4-d]pyrimidin-6-yl]phenyl}urea], the IC50 at PI3K (PI3Kα, read-out: PI3Kα IC50) was 194 nM; in the experiment with prostate line LNCap (Homo sapiens, LNCaP, 72 h) it was 225 nM; in the experiment on breast line MDA468 (Homo sapiens, 72 h) it was 600 nM.
With `O=C(Nc1ccc(-c2nc(N3CCOCC3)c3cnn(C4CCN(Cc5ccccc5)CC4)c3n2)cc1)NN1CCCC1` [Compound 291, 1-{4-[1-(1-benzylpiperidin-4-yl)-4-morpholin-4-yl-1H-pyrazolo[3,4-d]pyrimidin-6-yl]phenyl}-3-pyrrolidin-1-ylurea], the IC50 on PI3K (PI3Kα, read-out: PI3Kα IC50) is 4230 nM; in the experiment on prostate line LNCap (Homo sapiens, LNCaP, 72 h) it was 3000 nM; with breast line MDA468 (Homo sapiens, 72 h), 10000 nM.
In the case of `COC(=O)Nc1ccc(-c2nc(N3CCOCC3)c3cnn(C4CCN(CC(N)=O)CC4)c3n2)cc1` [Compound 456, methyl (4-{1-[1-(2-amino-2-oxoethyl)piperidin-4-yl]-4-morpholin-4-yl-1H-pyrazolo[3,4-d]pyrimidin-6-yl}phenyl)carbamate], the IC50 at PI3K (PI3Kα, read-out: PI3Kα IC50) was found to be 1430 nM; with prostate line LNCap (Homo sapiens, LNCaP, 72 h), 1300 nM; in the experiment on breast line MDA468 (Homo sapiens, 72 h), 3200 nM.
Turning to `CC(C)OC(=O)N1CCC(n2ncc3c(N4CCOCC4)nc(-c4ccc(NC(=O)Nc5ccccc5)cc4)nc32)CC1` [Compound 836, isopropyl 4-(6-{4-[(anilinocarbonyl)amino]phenyl}-4-morpholin-4-yl-1H-pyrazolo[3,4-d]pyrimidin-1-yl)piperidine-1-carboxylate], the half-maximal inhibitory concentration (IC50) on PI3K (PI3Kα, read-out: PI3Kα IC50) came out at 56 nM; with prostate line LNCap (Homo sapiens, LNCaP, 72 h), 58 nM; with breast line MDA468 (Homo sapiens, 72 h), 170 nM.
In the case of `CCOC(=O)N1CCC(n2ncc3c(N4CCOC[C@@H]4C)nc(-c4ccc(NC(=O)NCCF)cc4)nc32)CC1` [Compound 895, ethyl 4-{6-(4-{[(2-fluoroethyl)carbamoyl]amino}phenyl)-4-[(3S)-3-methylmorpholin-4-yl]-1H-pyrazolo[3,4-d]pyrimidin-1-yl}piperidine-1-carboxylate], the half-inhibitory concentration (IC50) is 521 nM at PI3K (PI3Kα, read-out: PI3Kα IC50); 100 nM with prostate line LNCap (Homo sapiens, LNCaP, 72 h); 950 nM in the experiment with breast line MDA468 (Homo sapiens, 72 h).
With `CNC(=O)Nc1ccc(-c2nc(N3CCOCC3)c3cnn(C4CCN(Cc5cccnc5Cl)CC4)c3n2)cc1` [Compound 635, 1-[4-(1-{1-[(2-chloropyridin-3-yl)methyl]piperidin-4-yl}-4-morpholin-4-yl-1H-pyrazolo[3,4-d]pyrimidin-6-yl)phenyl]-3-methylurea], the IC50 worked out at 90 nM on PI3K (PI3Kα, read-out: PI3Kα IC50); 45 nM in the experiment on prostate line LNCap; 110 nM with breast line MDA468.
Turning to `CNC(=O)Nc1ccc(-c2nc(N3CCOCC3)c3cnn(C4CCS(=O)(=O)CC4)c3n2)cc1` [Compound 869, 1-{4-[1-(1,1-dioxidotetrahydro-2H-thiopyran-4-yl)-4-morpholin-4-yl-1H-pyrazolo[3,4-d]pyrimidin-6-yl]phenyl}-3-methylurea], the IC50 was 74 nM at PI3K (PI3Kα, read-out: PI3Kα IC50); 540 nM with prostate line LNCap (Homo sapiens, LNCaP, 72 h); 590 nM in the experiment with breast line MDA468 (Homo sapiens, 72 h).
In the case of `CNC(=O)Nc1ccc(-c2nc(N3CCOCC3)c3cnn(C4CCN(C(=O)c5cccc(C(F)(F)F)c5)CC4)c3n2)cc1` [Example 359, 1-methyl-3-[4-(4-morpholin-4-yl-1-{1-[3-(trifluoromethyl)benzoyl]piperidin-4-yl}-1H-pyrazolo[3,4-d]pyrimidin-6-yl)phenyl]urea], the IC50 on PI3K (PI3Kα, read-out: PI3Kα IC50) amounted to 76 nM; with prostate line LNCap (Homo sapiens, LNCaP, 72 h), 45 nM; in the experiment on breast line MDA468 (Homo sapiens, 72 h), 200 nM.
`CN(C)C(=O)N1CCC(n2ncc3c(N4CCOCC4)nc(-c4ccc5[nH]ccc5c4)nc32)CC1` [Compound 95]: the IC50 was found to be 2460 nM at PI3K (PI3Kα, read-out: PI3Kα IC50); 700 nM in the experiment on prostate line LNCap (Homo sapiens, LNCaP, 72 h); 2100 nM with breast line MDA468 (Homo sapiens, 72 h).
For `c1cc2cc(-c3nc(N4CCOCC4)c4cnn(C5CCCCC5)c4n3)ccc2[nH]1` [Example 90, 1-cyclohexyl-6-(1H-indol-5-yl)-4-morpholin-4-yl-1H-pyrazolo[3,4-d]pyrimidine] the same measures were 918 nM, 1200 nM and 3200 nM.
For `CCCOC(=O)N1CCC(n2ncc3c(N4CCOCC4)nc(-c4ccc(NC(=O)NCC5CC5)cc4)nc32)CC1` [Compound 858, propyl 4-[6-(4-{[(cyclopropylmethyl)carbamoyl]amino}phenyl)-4-morpholin-4-yl-1H-pyrazolo[3,4-d]pyrimidin-1-yl]piperidine-1-carboxylate] the same measures were 2150 nM, 800 nM and 3200 nM.
For `NCc1ccc(-c2nc(N3CCOCC3)c3cnn(-c4ccccc4)c3n2)cc1` [Compound 146] the same measures were 457 nM, 1700 nM and 4000 nM.
With `Nc1ncc(-c2nc(N3CCOCC3)c3cnn(C4CCN(Cc5cccnc5)CC4)c3n2)cn1` [Compound 211], the IC50 was found to be 23 nM at PI3K (PI3Kα, read-out: PI3Kα IC50); 170 nM in the experiment on prostate line LNCap (Homo sapiens, LNCaP, 72 h); 800 nM in the experiment with breast line MDA468 (Homo sapiens, 72 h).
As for `O=C(Nc1ccc(-c2nc(N3CCOCC3)c3cnn(C4CCN(Cc5cccnc5)CC4)c3n2)cc1)Nc1ccsc1` [Compound 375, 1-(4-{4-morpholin-4-yl-1-[1-(pyridin-3-ylmethyl)piperidin-4-yl]-1H-pyrazolo[3,4-d]pyrimidin-6-yl}phenyl)-3-(3-thienyl)urea], the IC50 at PI3K (PI3Kα, read-out: PI3Kα IC50) came to 10 nM; in the experiment with prostate line LNCap (Homo sapiens, LNCaP, 72 h), 34 nM; with breast line MDA468 (Homo sapiens, 72 h) it was 100 nM.
For `CNCC(=O)N1CCC(n2ncc3c(N4CCOCC4)nc(-c4ccc5[nH]ccc5c4)nc32)CC1` [Compound 96] the same measures were 449 nM, 1300 nM and 2800 nM.
For the molecule `CCOC(=O)Nc1ccc(-c2nc(N3CCOCC3)c3cnn(C4CCN(C(=O)OC)CC4)c3n2)cc1` [Compound 900, methyl 4-(6-{4-[(ethoxycarbonyl)amino]phenyl}-4-morpholin-4-yl-1H-pyrazolo[3,4-d]pyrimidin-1-yl)piperidine-1-carboxylate], the 50% inhibitory concentration (IC50) at PI3K (PI3Kα, read-out: PI3Kα IC50) is 6720 nM; in the experiment with prostate line LNCap (Homo sapiens, LNCaP, 72 h) it was 760 nM; in the experiment on breast line MDA468 (Homo sapiens, 72 h) it was above 60000 nM.
For `CCNC(=O)Nc1ccc(-c2nc(N3CCOCC3)c3cnn(C4CCN(C(=O)OC)CC4)c3n2)cc1` [Compound 731, methyl 4-(6-{4-[(ethylcarbamoyl)amino]phenyl}-4-morpholin-4-yl-1H-pyrazolo[3,4-d]pyrimidin-1-yl)piperidine-1-carboxylate] the same measures were 490 nM, below 27 nM and 70 nM.
Consider `COC(=O)N1CCC(n2ncc3c(N4CCOCC4)nc(-c4ccc(NC(=O)Oc5ccc(F)cc5)cc4)nc32)CC1` [Compound 948, methyl 4-[6-(4-{[(4-fluorophenoxy)carbonyl]amino}phenyl)-4-morpholin-4-yl-1H-pyrazolo[3,4-d]pyrimidin-1-yl]piperidine-1-carboxylate], for which the concentration for half-maximal inhibition (IC50) worked out at 8830 nM at PI3K (PI3Kα IC50, PI3Kα); 220 nM in the experiment on prostate line LNCap (Homo sapiens, 72 h); 700 nM in the experiment with breast line MDA468 (Homo sapiens, 72 h).
